Experimental data as given in US20080170990A1, “Methods for Myocardial Imaging in Patients Having a History of Pulmonary Disease” (CV THERAPEUTICS, INC., priority 2006, published 2008).

Key:
[1] = system: healthy, non-smoking male subjects; test: Phase 1 ascending dose study, safety and maximum tolerated dose (Example 3); assay type: in vivo, human
Method: The study was performed using thirty-six healthy, non-smoking male subjects between the ages of 18 and 59 and within 15% of ideal body weight.
The study was performed in phase 1, single center, double-blind, randomized, placebo-controlled, crossover, ascending dose study. Randomization was to Regadenoson or placebo, in both supine and standing positions.
Regadenoson was administered as an IV bolus (20 seconds) in ascending doses of […], 10, 20 and 30 μg/kg.
Subjects received either Regadenoson of placebo on Day 1 supine, then crossover treatment on Day 2 supine. On Day 3, subjects received Regadenoson or placebo standing, then crossover treatment on Day 4 standing.
Patient safety was monitored by ECG, laboratory assessments, and collection of vital signs and adverse events.

anesthetized dog = test: Blood flow velocity in various vascular beds, intravascular Doppler (Example 4); assay type: in vivo; conditions: 1.0 μg/kg intravenous bolus
Text: The effects of Regadenoson were quantified as the average peak blood flow velocity (APV) using intravascular Doppler transducer tipped catheter. Heart rate (HR) and systemic arterial blood pressure (BP) were also monitored.

awake rats = test: Sympathoexcitation: heart rate, blood pressure and plasma catecholamines after i.v. bolus (Example 5); assay type: in vivo, rat
Method: CVT (0.31 μg/kg-50 μg/kg) was given as a rapid i.v. bolus to awake rats and heart rate (HR) and blood pressure (BP) were monitored. Regadenoson caused an increase in BP and systolic pressure (SP) at lower doses while at higher doses there was a decrease in BP and SP. […] The increase in HR was evident at the lowest dose of CVT at which there was no appreciable decrease in BP. ZM241385 (30 μg/kg, N=5), an A2A adenosine receptor antagonist, attenuated the decrease in BP (Regadenoson: 14±3%, ZM: 1±1%) and the increase in HR (CVT: 27±3%, ZM: 18±3%) caused by Regadenoson. Pretreatment with metoprolol (MET, 1 mg/kg, n=5), a beta-blocker, attenuated the increase in HR (CVT: 27±3%, MET: 15±2%), but had no effect on hypotension caused by Regadenoson. In the presence of hexamethonium (HEX, 10 mg/kg, n=5), a ganglionic blocker, the tachycardia was prevented (CVT: 27±3%, HEX: −1±2%), but BP was further reduced (CVT: −11±2%, HEX: −49±5%).

[2] = system: subjects undergoing stress/rest MPI; test: Stress/rest SPECT myocardial perfusion imaging, adenosine vs Regadenoson (Example 6); assay type: in vivo, human; conditions: 4D MSPECT; p=n.s.
Method: To determine the ability of Regadenoson to produce coronary hyperemia and accurately detect CAD, 35 subjects (26 men, 9 women; 67±10 years) underwent both A and Regadenoson stress/rest MPI, with 10.0±9.1 days between studies. […] Regadenoson [400 mcg (n=18), 500 mcg (n=17)] was administered as an IV bolus immediately followed by a saline flush, and then a Tc-99m radiopharmaceutical [sestamibi (n=34), tetrofosmin (n=1)]. SPECT images were uniformly processed, intermixed with control studies (normal and fixed-only defects), and interpreted by three observers in a blinded fashion using a 17-segment model. Quantitative analysis was also performed using 4D MSPECT. In addition to three separate readings, a consensus interpretation was performed and then a direct, same-screen comparison of A and REGADENASON images undertaken to determine relative differences, using 5 regions per study.

COPD patients = conditions: both, human, in vivo
Text: COPD patients were selected from two phase III randomized, triple-blind, placebo-controlled, multicenter studies (N=2,015) designed to test the strength of agreement for reversible cardiac defects between ADO and REG. There were 35 patients in the ADO group and 69 in the Regadenoson group. Age and gender were similar between ADO (68=11 yrs; 77% male) and Regadenoson group (68±11 yrs; 81% male). Of the 35 patients, 5 suffered (14%) cardiac symptoms in the ADO group vs 3/69 (4%) in the Regadenoson group (p=0.12); 14/35 (40%) in the ADO vs. 20/69 (29%) in the Regadenoson group resorted respiratory symptoms (p=0.28). Angina, occurrence of second degree AV block, acute pulmonary oedema and ronchi were higher in ADO group; nausea, GI discomfort and headache occurred more often in the Regadenoson group.

[3] = system: patients with moderate or several chronic obstructive pulmonary disease (COPD); test: Double-blind placebo-controlled crossover trial in chronic obstructive pulmonary disease (Example 11); assay type: in vivo, human
Method: Two similar randomized, double-blind, placebo (PLC)-controlled crossover trials were conducted, one in asthmatics with a positive adenosine monophosphate (AMP) challenge (a validated marker of airway inflammation) and one in patients with moderate or several chronic obstructive pulmonary disease (COPD). In both studies, short-acting bronchodilators were held prior to and for the 120 minute time frame study drug treatment during which spirometry was repeatedly assessed.

[4] = 30 μg/kg supine, 4 subjects per group

CNC(=O)c1cnn(-c2nc(N)c3ncn([C@@H]4O[C@H](CO)[C@@H](O)[C@H]4O)c3n2)c1 [Regadenoson, (1-{9-[(4S,2R,3R,5R)-3,4-dihydroxy-5-(hydroxymethyl)oxolan-2-yl]-6-aminopurin-2-yl}pyrazol-4-yl)-N-methylcarboxamide]
number of subjects with severe AE: Palpitation [1, 4]: 2
number of subjects with severe AE: Syncope [1, 4]: 0
tolerability ([1]; healthy volunteers, single IV bolus): well-tolerated
mean tolerable dose ([1]; standing): 0.01 mg/kg
mean tolerable dose ([1]; supine): 0.02 mg/kg
time for effect on blood flow velocity to dissipate (anesthetized dog): less than ten minutes
effect on HR (awake rats; 0.31 μg/kg-50 μg/kg rapid i.v. bolus): dose-dependent increase in HR
BP change caused by Regadenoson (awake rats; CVT alone (hexamethonium experiment)): −11±2%
increase in HR caused by Regadenoson (awake rats; CVT alone (printed three times: ZM, MET, HEX comparisons)): 27±3%
decrease in BP caused by Regadenoson (awake rats; Regadenoson alone (ZM241385 experiment)): 14±3%
summed score following stress, quantitative analysis [2]: 133.6±1.6
patients with cardiac symptoms (COPD patients): 4%
patients with cardiac symptoms, number (COPD patients): 3/69
patients with respiratory symptoms (COPD patients): 29%
patients with respiratory symptoms, number (COPD patients): 20/69
incidence of dyspnea following REG ([3]; COPD study): 61%
Number of patients with FEV1 decline by >20% over 120 min ([3]; COPD study N=49): 2 REG, 3 PLC
Number of patients with FEV1 decline by >30% over 120 min ([3]; COPD study N=49): 0 REG, 1 PLC
Number of patients with use of acute oxygen or short-acting bronchodilators ([3]; COPD study N=49): 0 REG, 0 PLC
Number of patients with FEV1 decline by >15% over 120 min ([3]; COPD study N=49, p = 0.31): 6 REG, 3 PLC
Number of patients with new onset wheezing ([3]; COPD study N=49, p = 0.33 vs PLC): 3 REG, 6 PLC
Maximum decline in FEV1 ([3]; COPD study N=49, p = 0.55 vs PLC): 0.11 (0.14)L REG
Maximum decline in oxygen saturation ([3]; COPD study N=49, p = 0.72 vs PLC): 1.21 (1.30)% REG
